Test results: the CheMixHub ionic liquid set

Assay: xn = mol fraction of the nth substance listed

CCCCCC[n+]1ccn(C)c1.F[B-](F)(F)F + CCCCCC[n+]1ccn(C)c1.[Cl-]
101 kPa, x2 = 0
Conditions	electrical conductivity [S/m]	viscosity [mPa·s]
303 K	0.16	–
303.15 K	–	189
308 K	0.205	–
308.15 K	–	145
313 K	0.259	–
313.15 K	–	114
318 K	0.322	–
318.15 K	–	90
323 K	0.397	–
323.15 K	–	73
328 K	0.481	–
328.15 K	–	60
333 K	0.576	–
333.15 K	–	49

CCCCCC[n+]1ccn(C)c1.F[B-](F)(F)F + O
Conditions	viscosity [mPa·s]
298.15 K, 100 kPa, x1 = 0.0153	2.79

CC(=O)[O-].CCCC[N+](CCCC)(CCCC)CCCC + CCCCN + O
303.15 K, 100 kPa
Conditions	viscosity [mPa·s]
x2 = 0, x3 = 0.0291	680
x2 = 0.0965, x3 = 0.0347	390
x2 = 0.194, x3 = 0.0301	188
x2 = 0.3198, x3 = 0.031	78
x2 = 0.4873, x3 = 0.0253	28
x2 = 0.6575, x3 = 0.0186	16
x2 = 0.7882, x3 = 0.0148	11
x2 = 0.8893, x3 = 0.0119	9

CCCCCC[n+]1ccn(C)c1.F[B-](F)(F)F + CCCN
Conditions	viscosity [mPa·s]
298.15 K, 101 kPa, x2 = 0	171.8

CCCCCCCCCO + CCCC[n+]1ccn(C)c1.O=S(=O)([N-]S(=O)(=O)C(F)(F)F)C(F)(F)F
Conditions	viscosity [mPa·s]
298 K, 100 kPa, x2 = 0.9008	41.28

CCC(=O)O.CCC(=O)[O-].CC[NH+](CC)CCO + CCCC[n+]1ccn(C)c1.COP(=O)([O-])OC
101 kPa
Conditions	viscosity [mPa·s]
278.15 K, x1 = 0.08	1956
283.15 K, x1 = 0.2364	446
283.15 K, x1 = 0.4953	205.6
283.15 K, x1 = 0.6252	170.9
283.15 K, x1 = 0.7416	147.7
288.15 K, x1 = 0.6252	123.8
293.15 K, x1 = 0.3281	154
293.15 K, x1 = 0.8667	70.8
298.15 K, x1 = 0.7416	60.3
298.15 K, x1 = 1	66.2
303.15 K, x1 = 0.08	280.9
303.15 K, x1 = 0.2364	123.4
303.15 K, x1 = 0.4183	70.2
303.15 K, x1 = 0.8667	41.6
308.15 K, x1 = 0.4183	54.9
308.15 K, x1 = 0.8667	32.8
313.15 K, x1 = 0.3281	53.8
313.15 K, x1 = 0.4953	39.2
318.15 K, x1 = 0.6252	27.36
323.15 K, x1 = 0.2364	47.3
323.15 K, x1 = 0.4953	25.98
328.15 K, x1 = 0.2364	38.66
328.15 K, x1 = 0.7416	16.29
328.15 K, x1 = 0.8667	14.65
333.15 K, x1 = 0.4953	18.11
333.15 K, x1 = 0.8667	12.33
333.15 K, x1 = 1	14.08
338.15 K, x1 = 0.08	48.11
338.15 K, x1 = 0.2364	26.76
338.15 K, x1 = 0.6252	13.4
338.15 K, x1 = 0.7416	11.64
343.15 K, x1 = 0.4953	13.09
348.15 K, x1 = 0.1549	25.27
348.15 K, x1 = 0.4183	12.61
348.15 K, x1 = 0.6252	9.95
348.15 K, x1 = 0.8667	7.75
353.15 K, x1 = 0.1549	21.56
353.15 K, x1 = 0.4183	10.98
358.15 K, x1 = 0.4183	9.63
358.15 K, x1 = 0.4953	8.59
358.15 K, x1 = 0.6252	7.61
363.15 K, x1 = 0.7416	5.82
363.15 K, x1 = 1	5.7
368.15 K, x1 = 0.08	17.66
368.15 K, x1 = 0.1549	14.09
368.15 K, x1 = 0.7416	5.16
373.15 K, x1 = 0.7416	4.6
373.15 K, x1 = 1	4.41

O=C(O)C(F)(F)C(F)(F)C(F)(F)C(F)(F)F + CC[n+]1ccn(C)c1.[Cl-]
102 kPa
Conditions	viscosity [mPa·s]
293.15 K, x2 = 0.6636	295
303.15 K, x2 = 0.3346	24.2
313.15 K, x2 = 0.3346	17.41
318.15 K, x2 = 0.5026	31.7
323.15 K, x2 = 0.5026	26.6
333.15 K, x2 = 0.5026	19.35
333.15 K, x2 = 0.6636	39.1
338.15 K, x2 = 0.3346	8.91
338.15 K, x2 = 0.5026	16.68
348.15 K, x2 = 0.5026	12.76
353.15 K, x2 = 0.3346	6.42

CCCC[N+](C)(C)C.O=S(=O)([N-]S(=O)(=O)C(F)(F)F)C(F)(F)F + CC(O)CO
101 kPa
Conditions	viscosity [mPa·s]
323.15 K, x2 = 0	35.6
323.15 K, x2 = 0.8843	11.79
328.15 K, x2 = 0.1909	19.2
333.15 K, x2 = 0.3054	14.35
338.15 K, x2 = 0	22.1
338.15 K, x2 = 0.3054	12.44
338.15 K, x2 = 0.5274	9.87
338.15 K, x2 = 0.8149	7.45
343.15 K, x2 = 0	19.2
348.15 K, x2 = 0	16.81
348.15 K, x2 = 0.1909	11.32
348.15 K, x2 = 0.5274	7.89
348.15 K, x2 = 0.8149	5.76
353.15 K, x2 = 0.8149	5.53

CC(C)[C@H](N)C(=O)O + CC[n+]1ccn(C)c1.O=S(=O)([O-])O + O
viscosity [mPa·s], 100 kPa
Conditions	x1 = 0.0003621, x2 = 0	x1 = 0.0007257, x2 = 0	x1 = 0.001091, x2 = 0	x1 = 0.001447, x2 = 0	x1 = 0.001793, x2 = 0	x1 = 0.002246, x2 = 0	x1 = 0.002701, x2 = 0
293.15 K	1.023	1.043	1.064	1.084	1.103	1.128	1.154
298.15 K	0.899	0.907	0.916	0.924	0.931	0.941	0.952
303.15 K	0.805	0.812	0.82	0.827	0.835	0.844	0.854
308.15 K	0.727	0.734	0.742	0.749	0.756	0.765	0.774
313.15 K	0.66	0.666	0.673	0.679	0.686	0.694	0.703
